Test results taken from the Biogen ADME set (Fang et al. 2023).
In brackets after ≈: the same amount, converted by molar mass.

Conditions: for aqueous solubility: pH 6.8

Row | Structure (SMILES) | MDR1-MDCK efflux ratio | intrinsic clearance, human liver microsomes [mL/min/kg] | intrinsic clearance, rat liver microsomes [mL/min/kg] | aqueous solubility [µg/mL] | fraction unbound, human plasma | fraction unbound, rat plasma
1 | Cn1nc(-c2cn(Cc3ccc(CO)cc3)nn2)c2c(Cl)cccc21 | 5.12 | 10 | 190 | 19.2 (≈ 54.3 µM) | – | –
2 | Cc1cccc(C)c1OCC(=O)N(C)[C@@H]1CC[C@@H](N2CCOCC2)[C@@H]1O | – | 6.43 | 104 | – | – | –
3 | CN(CCOc1ccccc1)CC(=O)NCCc1ccccc1 | 0.728 | 267 | 5420 | – | – | –
4 | COc1cccc2cc(C(N)=S)/c(=N/Nc3ccccc3)oc12 | 0.496 | – | – | 0.45 (≈ 1.38 µM) | – | –
5 | COc1ccc(CNC(=O)c2nnn(-c3ccc(OC)cc3)c2N)cc1 | 0.513 | 7.49 | 80.4 | 11.5 (≈ 32.7 µM) | – | –
6 | Cc1ncccc1NC(=O)OC(C)(C)C | 0.755 | ≤ 4.74 | 21.1 | – | – | –
7 | NC1CCC(C(=O)N2CCC(c3c[nH]c4ncccc34)CC2)C1 (stereo not drawn) | 2.66 | ≤ 4.74 | – | – | 0.827 | –
8 | C[C@H](C(=O)Nc1nc2ccccc2[nH]1)N1Cc2ccccc2C1=O | – | ≤ 4.74 | 62.6 | 26.5 (≈ 82.6 µM) | – | –
9 | CC(C)Oc1ccc(C2(C(=O)NC3CCS(=O)(=O)CC3)CCCC2)cc1 | 37.9 | 15.7 | 210 | – | – | –
10 | Cc1nsc(Nc2ccccc2)c1C#N | 0.367 | 300 | 782 | – | – | –
11 | c1ccc(CC2=NCCN2)cc1 | 0.361 | ≤ 4.74 | ≤ 10.7 | – | – | –
12 | CCc1nc2ccccc2n1CC(=O)Nc1cnc2ccccc2c1 | – | 21.3 | 188 | – | – | –
13 | O=C(NCCc1ccc2c(c1)OCO2)C1CCCC1 | 0.69 | 27.6 | 600 | 42.1 (≈ 161 µM) | – | –
14 | CN(C)S(=O)(=O)CCCN1CCc2ccccc2CC1 | 0.6 | 15.9 | 716 | – | – | –
15 | COc1ccc(OC)c(-c2cc(C(=O)N3CCCN(C(C)=O)CC3)no2)c1 | 4.72 | 12.9 | 214 | 59.7 (≈ 160 µM) | – | –
16 | O=C1CCCC[C@@H]2[C@H](C[C@@H](Cc3ccccc3F)N2C(=O)c2cccc3ncccc23)N1 | 48.1 | 63.7 | 400 | – | 0.19 | 0.223
17 | COc1cccc(Cc2nc3sc4c(c3c(=O)[nH]2)CCSC4)c1 | 1.02 | 113 | 2820 | – | – | –
18 | COC(=O)C1=NOC2(CCN(CCC(C)(C)C)CC2)C1 | 0.474 | 144 | 301 | – | – | –
19 | O=c1oc2cccnc2n1Cc1cnn(-c2ccccc2)n1 | – | ≤ 4.74 | 63.7 | – | – | –
20 | CN(CCc1ccncc1)c1ncccc1C#N | 0.743 | 44.3 | 552 | – | – | –
21 | CC(C)Cc1n[nH]c(-c2ccc(N3CCN(C)CC3)cc2)n1 | 3.36 | ≤ 4.74 | 236 | – | – | –

Row | Structure (SMILES) | MDR1-MDCK efflux ratio | intrinsic clearance, human liver microsomes [mL/min/kg] | intrinsic clearance, rat liver microsomes [mL/min/kg] | aqueous solubility [µg/mL] | fraction unbound, human plasma | fraction unbound, rat plasma
22 | CCN(CCO)Cc1nc2cc(OC)c(OC)cc2c(=O)[nH]1 | 31.2 | ≤ 4.74 | ≤ 10.7 | – | – | –
23 | COc1cccc(CNc2ncc(-c3ccccc3)n2C)c1 | 0.539 | 938 | 2210 | 23.5 (≈ 80 µM) | – | –
24 | CCc1nc(C)cc(N2CCCC3(CCNCC3)CC2)n1 | 32.4 | ≤ 4.74 | ≤ 10.7 | – | – | –
25 | Cc1cc(C)c(NC(=O)CN(C)c2ccc(C#N)nc2)c(C)c1 | 6.69 | 14.4 | 75.7 | – | – | –
26 | CN(C)c1ccc(-c2ccc(C(=O)NCCN3CCCC3=O)cc2)nn1 | 55.2 | ≤ 4.74 | 75 | – | – | –
27 | COc1nc2c(cc1CNC(=O)N1CC[C@@H](O)C1)C(=O)N(C1CCCC1)C2 | 32 | ≤ 4.74 | ≤ 10.7 | – | – | –
28 | O=C(CN1CCCN(c2ccc(C(F)(F)F)cn2)CC1)Nc1ccccc1F | 0.671 | 148 | 1100 | 19.4 (≈ 49.1 µM) | – | –
29 | Cc1cccc(Oc2cc(CN)ccn2)c1C | 0.443 | ≤ 4.74 | 527 | 30.1 (≈ 132 µM) | – | –
30 | CCC1=Nc2c(cnn2-c2cccc(Cl)c2)C2=NCCCN12 | – | – | – | 53.2 (≈ 170 µM) | – | –
31 | O=C(NCC1(c2ccc(F)cc2)CCOCC1)c1ccccn1 | 0.793 | 11.6 | 449 | 50 (≈ 159 µM) | – | –
32 | Cc1ccc2nc(CN(C)Cc3cccc(Cl)c3Cl)cc(=O)n2c1 | 0.617 | 633 | 4770 | – | – | –
33 | c1ccc(Cc2nnc(NC3CCOCC3)s2)cc1 | 1.23 | ≤ 4.74 | 20.6 | 34 (≈ 123 µM) | – | –
34 | O=S(=O)(NCc1n[nH]c2c1CCCCC2)c1ccc(OC(F)F)cc1 | 7.25 | 361 | 1760 | – | – | –
35 | CCNC(=O)N1CCc2nc3ccc(F)cn3c(=O)c2C1 | 10.3 | ≤ 4.74 | ≤ 10.7 | 57.7 (≈ 199 µM) | – | –
36 | CCN(CC)Cc1ccc2cc(COC(=O)Nc3ccc(C(=O)NO)cc3)ccc2c1 | 22.6 | 7.96 | 227 | 78 (≈ 185 µM) | – | –
37 | C#Cc1cccc(N(CCC(=O)NC(N)=O)Cc2cccs2)c1 | 1.88 | 51.4 | 1070 | – | – | –
38 | O=C(CN1CCCN(c2ccc(C(F)(F)F)cn2)CC1)Nc1cccc(F)c1 | 0.796 | 120 | 967 | 30.5 (≈ 76.9 µM) | – | –
39 | Cc1cc(C)nc(N2Cc3ccccc3C2=N)n1 | 0.807 | 24.6 | 1160 | – | – | –
40 | O=C(C1CCCN(Cc2cc3c(cc2O)OCO3)C1)N1CCOCC1 (stereo not drawn) | 1.94 | 5.4 | 52.6 | 55.8 (≈ 160 µM) | – | –
41 | C/C=C/CC(=O)N1CCC(c2cc(Cc3ccccc3)n[nH]2)CC1 | 2.41 | 52 | 771 | 24.1 (≈ 74.5 µM) | – | –
